Assay results as given in patent US8513205B2, “Potent chimeric NRTI-NNRTI bifunctional inhibitors of HIV-1 reverse transcriptase” (Yale University, priority 2008, dated 2013).
Where two headings read alike, the source gives them in different places.

Experiments:
[1] = target: T1, HIV-1 RT (Human immunodeficiency virus type 1 group M subtype B, UniProt P03366); assay: Steady-state competition assay, inhibition of single nucleotide incorporation by HIV-1 RT; format: biochemical
T1 construct: heterodimeric p66/p51 wild-type HIV-1 RT; His tag (histidine tag) (C); made in house
Protocol: dTTP and dGTP were purchased from GE Biosciences. Oligonucleotide primers and template were synthesized and purified using 20% denaturing gel-electrophoresis. […] Labeling and annealing of primer/templates were performed as described previously. Murakami, et al., J. Biol. Chem. 2003, 278, 36403-36409. Expression and Purification of HIV-1 RT.
C-terminal histidine tagged heterodimeric p66/p51 wild-type HIV-1 RT was expressed and purified as described previously (Kerr and Anerson, Biochemistry, 1997, 36, 14064-14070) using a clone generously provided by Stephen Hughes, Paul Boyer, and Andrea Ferris (Fredrick Cancer Research and Development Center, Fredrick, Md.).
DMSO concentrations were kept constant at less than 2%. DMSO alone was added as a no inhibitor control for each set of experiments. Reactions were initiated with the addition of 5 μM dNTP and 10 mM MgCl2 and were quenched after 15 minutes at 37° C. with 0.3 M EDTA. All concentrations represent final concentrations after mixing. Reaction products were subjected to 20% denaturing polyacrylamide gel-electrophoresis and quantitated on a Bio-Rad Molecular Imager FX. Product formation was plotted as a function of inhibitor concentration and fitted to a hyperbola to generate IC50 curves. IC50 values are defined as the concentration of inhibitor that inhibits steady-state single nucleotide incorporation by 50%.

[2] = target: T1, HIV-1 RT; assay: Incorporation assay under single turnover conditions (gel, FIG. 7); format: biochemical; conditions: 30 min, with Mg++; for incorporation into primer opposite template A: D23/D36mer, primer for T incorporation, no dTTP; for incorporation into primer opposite template C: D24/D36mer, primer for G incorporation, no dGTP
Protocol: Controls for both primer/templates include 0 time points (lanes 1 and 4) and incubation for 30 min. with no Mg^++ (lanes 2 and 5).
Incorporation experiments were performed under single turnover conditions; 50 μM d4U-TP-4PEG-TMC and 10 mM MgCl2 were mixed with 250 nM RT (active sites) and 50 nM 5′-labeled primer/template to initiate the reaction. Negative controls were performed under identical conditions without MgCl2. The reaction was allowed to proceed for 30 minutes at 37° C., after which the reaction was quenched with 0.3 M EDTA. Reaction products were subjected to 20% denaturing polyacrylamide gel-electrophoresis and analyzed on a Bio-Rad Molecular Imager FX.

[3] = inhibition of dGTP incorporation opposite template C, D24/D36mer primer-template, read-out: IC50 incorrect base pair
[4] = inhibition of dTTP incorporation opposite template A, D23/D36mer primer-template, read-out: IC50 correct base pair

| SMILES | fold improvement in potency relative to TMC-4PEG-OH ([1]; correct base pair, D23/D36mer) [fold] | IC50 [1, 3] [nM] | IC50 [1, 4] [nM] | fold improvement relative to d4T-TP ([1]; correct base pair, D23/D36mer) [fold] | fold improvement relative to the TMC-derivative ([1]; correct base pair, D23/D36mer) | incorporation into primer opposite template A ([2]; listed as d4U-TP-4PEG-TMC) | incorporation into primer opposite template A ([2]; listed as d4UTP-4PEG-TMC) | incorporation into primer opposite template C ([2]; listed as d4U-TP-4PEG-TMC) | incorporation into primer opposite template C ([2]; listed as d4UTP-4PEG-TMC) | fold lower potency relative to parent TMC-derivative ([1]; correct base pair, D23/D36mer) [fold] |
| --- | --- | --- | --- | --- | --- | --- | --- | --- | --- | --- |
| Cc1cc(C#CCOCCOCCOCCOCCOCC#Cc2cn(C3C=CC(CO)O3)c(=O)[nH]c2=O)cc(C)c1Oc1ccnc(Nc2ccc(C#N)cc2)n1 (centres unmarked) [1b, d4U-propynyl-4-PEG-propynyl-TMC-120] | 3 | 35 | 16 | – | – | – | – | – | – | – |
| Cc1cc(C#CCOCCOCCOCCOCCOCC#Cc2cn(C3C=CC(COP(=O)(O)OP(=O)(O)OP(=O)(O)O)O3)c(=O)[nH]c2=O)cc(C)c1Oc1ccnc(Nc2ccc(C#N)cc2)n1 (centres unmarked) [1c, d4U-propynyl-4-PEG-propynyl-TMC-120 Triphosphate] | – | 38 | 3 | > 500 | 4-5 fold | formation of an elongated primer chain terminated with the bifunctional monophosphate | incorporation of the bifunctional-TP | not the D24/36mer primer-template | no product | – |
| Cc1cc(C#CCOCCOCCOCCOCCO)cc(C)c1Oc1ccnc(Nc2ccc(C#N)cc2)n1 [TMC-4PEG-OH, E, 4-(4-{4-[3-(2-{2-[2-(2-Hydroxy-ethoxy)-ethoxy]-ethoxy}-ethoxy)-prop-1-ynyl]-2,6-dimethyl-phenoxy}-pyrimidin-2-ylamino)-benzonitrile] | – | 29 | 49 | – | – | – | – | – | – | 4 |
